Results taken from ChEMBL document CHEMBL5291721, “A preclinical secondary pharmacology resource illuminates target-adverse drug reaction associations of marketed drugs” (Nat Commun, 2023).

Key:
[1] = molecular target: 3',5'-cyclic-AMP phosphodiesterase 4A (Homo sapiens, UniProt P27815); format: functional
Acetylcholinesterase = Acetylcholinesterase (Homo sapiens, UniProt P22303); format: functional
[2] = molecular target: T1, Alpha-2C adrenergic receptor (Homo sapiens, UniProt P18825); format: functional
T1 sequence (P18825 whole entry): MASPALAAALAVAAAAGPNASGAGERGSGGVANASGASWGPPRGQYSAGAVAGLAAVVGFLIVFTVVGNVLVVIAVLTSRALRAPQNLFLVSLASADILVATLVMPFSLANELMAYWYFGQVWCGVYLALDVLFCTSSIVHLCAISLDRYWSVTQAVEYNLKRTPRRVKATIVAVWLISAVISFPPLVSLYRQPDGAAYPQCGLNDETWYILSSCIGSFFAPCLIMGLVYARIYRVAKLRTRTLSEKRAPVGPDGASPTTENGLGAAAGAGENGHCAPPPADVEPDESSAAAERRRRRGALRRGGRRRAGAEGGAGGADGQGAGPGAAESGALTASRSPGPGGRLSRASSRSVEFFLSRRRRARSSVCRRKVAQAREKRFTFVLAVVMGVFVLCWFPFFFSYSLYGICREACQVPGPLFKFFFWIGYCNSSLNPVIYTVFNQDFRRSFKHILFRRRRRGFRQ

Cannabinoid receptor 1 [3] = molecular target: T2, Cannabinoid receptor 1 (Homo sapiens, UniProt P21554); format: functional, cell-based
D(3) dopamine receptor = D(3) dopamine receptor (Homo sapiens, UniProt P35462)
Vasopressin V2 receptor = Vasopressin V2 receptor (Homo sapiens, UniProt P30518)
[4] = molecular target: Beta-2 adrenergic receptor (Homo sapiens, UniProt P07550)
[5] = molecular target: T3, 5-hydroxytryptamine receptor 1A (Homo sapiens, UniProt P08908); format: functional, cell-based
T3 sequence (P08908 whole entry): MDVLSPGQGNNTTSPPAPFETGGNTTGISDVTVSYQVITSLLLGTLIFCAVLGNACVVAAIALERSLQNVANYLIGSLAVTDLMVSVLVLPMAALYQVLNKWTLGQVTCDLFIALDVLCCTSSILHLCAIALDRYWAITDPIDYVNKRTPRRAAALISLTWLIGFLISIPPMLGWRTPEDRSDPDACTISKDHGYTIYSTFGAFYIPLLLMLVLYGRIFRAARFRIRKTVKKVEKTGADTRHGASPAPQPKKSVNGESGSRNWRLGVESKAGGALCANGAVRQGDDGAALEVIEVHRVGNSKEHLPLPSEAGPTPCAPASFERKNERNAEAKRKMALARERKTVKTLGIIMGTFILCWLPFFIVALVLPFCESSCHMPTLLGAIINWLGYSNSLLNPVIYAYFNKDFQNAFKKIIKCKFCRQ

Glucocorticoid receptor = molecular target: T4, Glucocorticoid receptor (Homo sapiens, UniProt P04150)
T4 sequence (P04150 whole entry): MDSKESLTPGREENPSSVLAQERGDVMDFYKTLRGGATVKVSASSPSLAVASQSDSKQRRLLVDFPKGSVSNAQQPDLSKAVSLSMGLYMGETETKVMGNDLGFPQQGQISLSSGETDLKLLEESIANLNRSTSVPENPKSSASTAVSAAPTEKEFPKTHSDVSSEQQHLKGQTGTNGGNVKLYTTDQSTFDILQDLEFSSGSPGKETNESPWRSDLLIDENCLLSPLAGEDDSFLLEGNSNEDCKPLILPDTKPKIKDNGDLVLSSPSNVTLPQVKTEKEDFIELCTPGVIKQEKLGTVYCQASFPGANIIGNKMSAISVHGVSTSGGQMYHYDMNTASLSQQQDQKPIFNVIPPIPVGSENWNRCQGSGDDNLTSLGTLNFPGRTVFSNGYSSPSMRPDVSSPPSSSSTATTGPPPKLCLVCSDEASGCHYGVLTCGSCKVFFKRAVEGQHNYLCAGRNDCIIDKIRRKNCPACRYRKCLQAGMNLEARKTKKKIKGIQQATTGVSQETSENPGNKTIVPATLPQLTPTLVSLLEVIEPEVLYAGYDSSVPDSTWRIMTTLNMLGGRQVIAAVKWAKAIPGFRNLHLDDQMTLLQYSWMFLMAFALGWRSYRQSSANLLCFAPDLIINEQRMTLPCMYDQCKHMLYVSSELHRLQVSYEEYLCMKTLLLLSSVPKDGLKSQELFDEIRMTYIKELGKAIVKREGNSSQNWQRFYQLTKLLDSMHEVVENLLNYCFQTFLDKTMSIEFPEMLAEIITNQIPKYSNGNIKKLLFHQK

Histamine H3 receptor = Histamine H3 receptor (Homo sapiens, UniProt Q9Y5N1)
Cannabinoid receptor 1 [6] = molecular target: T2, Cannabinoid receptor 1; format: functional, cell-based; remark: listed apart in the source
[7] = molecular target: T5, Equilibrative nucleoside transporter 1 (Homo sapiens, UniProt Q99808)
T5 sequence (Q99808 whole entry): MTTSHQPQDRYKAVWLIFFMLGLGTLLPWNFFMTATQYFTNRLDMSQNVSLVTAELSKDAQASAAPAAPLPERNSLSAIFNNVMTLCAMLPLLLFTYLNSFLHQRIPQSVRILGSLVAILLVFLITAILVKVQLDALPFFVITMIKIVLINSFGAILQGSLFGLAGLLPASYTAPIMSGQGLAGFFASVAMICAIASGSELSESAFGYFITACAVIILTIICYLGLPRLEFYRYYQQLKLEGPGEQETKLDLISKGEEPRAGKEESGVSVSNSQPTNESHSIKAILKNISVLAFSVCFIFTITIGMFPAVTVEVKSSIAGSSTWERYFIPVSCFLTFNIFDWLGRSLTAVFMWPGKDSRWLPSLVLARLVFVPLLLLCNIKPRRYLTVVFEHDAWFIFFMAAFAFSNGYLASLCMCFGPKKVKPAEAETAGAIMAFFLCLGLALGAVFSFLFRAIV

Vasopressin V1a receptor = Vasopressin V1a receptor (Homo sapiens, UniProt P37288)
Further: assay procedure not described here.

Vasopressin V2 receptor, sequence (P30518 whole entry): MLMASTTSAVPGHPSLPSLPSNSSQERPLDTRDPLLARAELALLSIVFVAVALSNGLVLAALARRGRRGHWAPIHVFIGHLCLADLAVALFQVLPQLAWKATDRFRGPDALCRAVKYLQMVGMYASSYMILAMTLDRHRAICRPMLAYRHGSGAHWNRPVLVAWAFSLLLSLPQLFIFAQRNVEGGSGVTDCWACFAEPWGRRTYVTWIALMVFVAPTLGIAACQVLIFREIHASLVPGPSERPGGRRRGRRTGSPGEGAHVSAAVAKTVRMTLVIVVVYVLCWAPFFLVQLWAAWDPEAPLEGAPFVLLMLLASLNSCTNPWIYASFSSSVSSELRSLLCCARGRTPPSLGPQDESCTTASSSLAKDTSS
T2 sequence (P21554 whole entry): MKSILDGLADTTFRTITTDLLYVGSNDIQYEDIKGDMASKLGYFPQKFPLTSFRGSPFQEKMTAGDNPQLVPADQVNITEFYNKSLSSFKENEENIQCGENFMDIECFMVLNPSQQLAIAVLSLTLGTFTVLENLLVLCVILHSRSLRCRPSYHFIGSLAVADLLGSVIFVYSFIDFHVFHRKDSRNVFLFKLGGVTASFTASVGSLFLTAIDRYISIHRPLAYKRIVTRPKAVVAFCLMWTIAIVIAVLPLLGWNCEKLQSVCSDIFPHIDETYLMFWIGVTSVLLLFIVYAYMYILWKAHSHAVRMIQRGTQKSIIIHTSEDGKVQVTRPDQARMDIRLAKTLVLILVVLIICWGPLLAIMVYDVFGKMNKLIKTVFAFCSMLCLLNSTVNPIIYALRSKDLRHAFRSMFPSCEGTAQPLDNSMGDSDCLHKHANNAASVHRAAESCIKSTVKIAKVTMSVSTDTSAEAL
3',5'-cyclic-AMP phosphodiesterase 4A, sequence (P27815 whole entry): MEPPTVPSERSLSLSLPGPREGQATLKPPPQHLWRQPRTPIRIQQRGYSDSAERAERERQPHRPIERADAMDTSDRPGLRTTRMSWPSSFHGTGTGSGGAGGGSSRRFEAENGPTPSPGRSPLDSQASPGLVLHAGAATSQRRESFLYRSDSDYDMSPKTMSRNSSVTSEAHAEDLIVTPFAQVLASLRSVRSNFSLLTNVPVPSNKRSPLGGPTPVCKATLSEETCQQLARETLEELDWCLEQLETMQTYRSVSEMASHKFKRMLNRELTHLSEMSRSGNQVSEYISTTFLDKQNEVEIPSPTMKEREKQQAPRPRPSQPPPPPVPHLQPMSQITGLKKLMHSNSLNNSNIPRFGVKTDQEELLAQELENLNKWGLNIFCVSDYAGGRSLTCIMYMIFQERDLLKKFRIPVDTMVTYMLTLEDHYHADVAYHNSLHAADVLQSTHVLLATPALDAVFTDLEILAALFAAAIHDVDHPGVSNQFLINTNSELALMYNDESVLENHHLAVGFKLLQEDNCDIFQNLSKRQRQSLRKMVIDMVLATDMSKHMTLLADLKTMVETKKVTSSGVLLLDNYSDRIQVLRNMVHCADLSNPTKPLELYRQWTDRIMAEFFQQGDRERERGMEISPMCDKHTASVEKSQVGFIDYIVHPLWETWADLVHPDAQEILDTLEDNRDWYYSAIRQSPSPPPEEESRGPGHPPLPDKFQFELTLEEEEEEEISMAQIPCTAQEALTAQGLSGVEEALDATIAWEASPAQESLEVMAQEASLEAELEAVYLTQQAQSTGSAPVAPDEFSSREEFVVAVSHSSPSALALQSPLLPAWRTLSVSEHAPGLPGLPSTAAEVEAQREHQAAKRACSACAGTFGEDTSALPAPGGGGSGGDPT
Histamine H3 receptor, sequence (Q9Y5N1 whole entry): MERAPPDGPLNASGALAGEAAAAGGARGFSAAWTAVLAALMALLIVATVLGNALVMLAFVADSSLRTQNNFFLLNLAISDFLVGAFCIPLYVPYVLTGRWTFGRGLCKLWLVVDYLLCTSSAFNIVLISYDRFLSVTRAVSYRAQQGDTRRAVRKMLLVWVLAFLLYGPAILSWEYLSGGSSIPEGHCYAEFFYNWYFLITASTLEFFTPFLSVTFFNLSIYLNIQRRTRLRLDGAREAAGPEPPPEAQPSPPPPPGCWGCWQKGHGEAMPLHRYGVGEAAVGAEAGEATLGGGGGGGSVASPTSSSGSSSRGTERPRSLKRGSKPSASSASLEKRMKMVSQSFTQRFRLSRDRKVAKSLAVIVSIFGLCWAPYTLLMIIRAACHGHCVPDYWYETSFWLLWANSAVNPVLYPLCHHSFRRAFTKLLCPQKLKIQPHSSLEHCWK
D(3) dopamine receptor, sequence (P35462 whole entry): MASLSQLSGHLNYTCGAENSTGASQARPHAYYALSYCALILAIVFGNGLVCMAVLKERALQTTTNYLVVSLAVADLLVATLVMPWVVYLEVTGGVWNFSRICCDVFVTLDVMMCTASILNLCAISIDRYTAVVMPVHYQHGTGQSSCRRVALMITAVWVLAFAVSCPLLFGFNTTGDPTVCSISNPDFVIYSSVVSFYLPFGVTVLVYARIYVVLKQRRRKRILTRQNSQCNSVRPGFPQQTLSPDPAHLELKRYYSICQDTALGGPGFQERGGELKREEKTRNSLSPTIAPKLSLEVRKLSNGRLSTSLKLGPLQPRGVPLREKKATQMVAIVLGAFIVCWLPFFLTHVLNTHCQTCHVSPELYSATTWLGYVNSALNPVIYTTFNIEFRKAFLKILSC
Vasopressin V1a receptor, sequence (P37288 whole entry): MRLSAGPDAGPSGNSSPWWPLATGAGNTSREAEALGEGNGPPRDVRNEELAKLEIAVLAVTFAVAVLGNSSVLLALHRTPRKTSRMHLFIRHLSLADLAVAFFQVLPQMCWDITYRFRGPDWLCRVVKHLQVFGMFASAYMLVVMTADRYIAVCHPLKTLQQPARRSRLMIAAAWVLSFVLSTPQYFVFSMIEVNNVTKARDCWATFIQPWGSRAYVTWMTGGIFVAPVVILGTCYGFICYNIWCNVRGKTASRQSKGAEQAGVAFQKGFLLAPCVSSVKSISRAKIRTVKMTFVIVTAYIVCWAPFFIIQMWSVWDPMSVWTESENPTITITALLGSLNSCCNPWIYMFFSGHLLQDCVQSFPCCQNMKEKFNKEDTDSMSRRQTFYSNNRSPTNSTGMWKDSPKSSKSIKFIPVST
Acetylcholinesterase, sequence (P22303 whole entry): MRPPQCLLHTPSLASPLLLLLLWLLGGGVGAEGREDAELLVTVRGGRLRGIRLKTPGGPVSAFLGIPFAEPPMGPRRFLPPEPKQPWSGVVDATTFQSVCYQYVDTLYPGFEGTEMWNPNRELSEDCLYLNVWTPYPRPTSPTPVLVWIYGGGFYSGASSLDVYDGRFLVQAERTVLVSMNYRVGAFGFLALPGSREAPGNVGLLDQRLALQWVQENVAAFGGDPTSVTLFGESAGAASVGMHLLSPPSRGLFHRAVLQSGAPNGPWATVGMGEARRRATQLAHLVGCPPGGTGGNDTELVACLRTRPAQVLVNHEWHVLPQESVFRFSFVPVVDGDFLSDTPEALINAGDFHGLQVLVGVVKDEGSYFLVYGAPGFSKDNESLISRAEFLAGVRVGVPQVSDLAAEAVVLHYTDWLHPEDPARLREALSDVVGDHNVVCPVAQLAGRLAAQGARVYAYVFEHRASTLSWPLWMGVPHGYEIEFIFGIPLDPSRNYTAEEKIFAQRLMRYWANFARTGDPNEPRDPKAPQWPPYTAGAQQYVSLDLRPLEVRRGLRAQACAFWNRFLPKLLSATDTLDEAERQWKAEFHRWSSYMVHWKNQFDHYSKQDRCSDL
Beta-2 adrenergic receptor, sequence (P07550 whole entry): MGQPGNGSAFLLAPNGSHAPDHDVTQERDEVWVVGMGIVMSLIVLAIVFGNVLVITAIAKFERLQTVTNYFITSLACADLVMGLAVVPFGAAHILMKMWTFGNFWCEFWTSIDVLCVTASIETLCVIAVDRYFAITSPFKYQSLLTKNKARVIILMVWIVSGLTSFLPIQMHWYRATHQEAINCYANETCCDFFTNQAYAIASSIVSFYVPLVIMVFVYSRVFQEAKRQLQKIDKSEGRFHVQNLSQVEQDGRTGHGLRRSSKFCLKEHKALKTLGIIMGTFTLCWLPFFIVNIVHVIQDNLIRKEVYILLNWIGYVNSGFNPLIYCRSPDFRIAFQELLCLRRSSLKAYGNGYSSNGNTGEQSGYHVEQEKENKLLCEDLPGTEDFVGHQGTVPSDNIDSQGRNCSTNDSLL

| Structure (SMILES) | AC50 [1] | AC50 (Acetylcholinesterase) | also measured |
| --- | --- | --- | --- |
| CCCCCCCCCCCCCCCC(=O)OC[C@H](COP(=O)([O-])OCC[N+](C)(C)C)OC(=O)CCCCCCCCCCCCCCC [COLFOSCERIL PALMITATE] | > 30 µM | > 30 µM | – |
| COc1cccc2c1C(=O)c1c(O)c3c(c(O)c1C2=O)C[C@@](O)(C(=O)CO)C[C@@H]3O[C@H]1C[C@H](N)[C@H](O[C@@H]2CCCCO2)[C@H](C)O1 [PIRARUBICIN] | > 30 µM | > 10 µM | – |
| O=C(O)[C@H](O)[C@@H](O)[C@H](O)[C@H](O)CO [GLUCONIC ACID] | 21.4 µM | > 30 µM | – |
| CC(C)(Oc1ccc(Cl)cc1)C(=O)NC(=O)NCN1CCOCC1 [PLAFIBRIDE] | > 30 µM | > 30 µM | – |
| N=C(N)NCC1COc2ccccc2O1 (configuration not stated) [GUANOXAN] | > 30 µM | > 30 µM | – |
| N#Cc1ccnc(N2C(=O)CC[C@H]2C(=O)N(c2cncc(F)c2)[C@H](C(=O)NC2CC(F)(F)C2)c2ccccc2Cl)c1 [IVOSIDENIB] | > 30 µM | > 30 µM | – |
| CC(C)Nc1cccnc1N1CCN(C(=O)c2cc3cc(NS(C)(=O)=O)ccc3[nH]2)CC1 [DELAVIRDINE] | > 30 µM | > 30 µM | – |
| O=c1[nH]c2ccccc2n1CCN1CCN(c2cccc(C(F)(F)F)c2)CC1 [FLIBANSERIN] | > 30 µM | > 30 µM | – |
| CO[C@@]1(NC(=O)C(C(=O)O)c2ccc(O)cc2)C(=O)N2C(C(=O)O)=C(CSc3nnnn3C)CO[C@@H]21 (some centres not stated) [MOXALACTAM] | > 30 µM | > 30 µM | – |
| NCCCNCCSP(=O)(O)O [AMIFOSTINE] | – | – | AC50 [2]: > 30 µM; AC50 (Cannabinoid receptor 1 [3]): > 30 µM; AC50 (D(3) dopamine receptor): > 30 µM; AC50 (Vasopressin V2 receptor): > 30 µM; AC50 [4]: > 30 µM; AC50 [5]: > 30 µM; AC50 (Glucocorticoid receptor): > 30 µM; AC50 (Histamine H3 receptor): > 30 µM; AC50 (Cannabinoid receptor 1 [6]): > 30 µM |
| CCCCCCCC/C=C\CCCCCCCC(=O)O [OLEIC ACID] | > 30 µM | > 30 µM | – |
| C[C@]12CC[C@@H]3c4ccc(OC(=O)N(CCCl)CCCl)cc4CC[C@H]3[C@@H]1CC[C@@H]2OP(=O)(O)O [ESTRAMUSTINE PHOSPHATE] | > 30 µM | > 30 µM | – |
| O=c1[nH]cc(F)c(=O)[nH]1 [FLUOROURACIL] | > 30 µM | > 30 µM | AC50 [7]: > 30 µM; AC50 (Vasopressin V2 receptor): > 30 µM; AC50 (Vasopressin V1a receptor): > 30 µM; AC50 (Glucocorticoid receptor): > 30 µM; AC50 (Histamine H3 receptor): > 30 µM |
| O=NN(CCCl)C(=O)NC1CCCCC1 [LOMUSTINE] | 25.7 µM | > 30 µM | – |
| O=C(O)COC(=O)Cc1ccccc1Nc1c(Cl)cccc1Cl [ACECLOFENAC] | – | – | AC50 [2]: > 10 µM; AC50 (Cannabinoid receptor 1 [3]): > 30 µM; AC50 (D(3) dopamine receptor): > 30 µM; AC50 [7]: > 30 µM; AC50 (Vasopressin V2 receptor): > 30 µM; AC50 (Vasopressin V1a receptor): > 30 µM; AC50 [4]: > 10 µM; AC50 [5]: > 10 µM; AC50 (Histamine H3 receptor): > 10 µM; AC50 (Cannabinoid receptor 1 [6]): > 30 µM |
| CC#CC(=O)N1CCC[C@H]1c1nc(-c2ccc(C(=O)Nc3ccccn3)cc2)c2c(N)nccn12 [ACALABRUTINIB] | > 30 µM | > 30 µM | – |
| CC1=C(C/C=C(\C)CCC[C@H](C)CCC[C@H](C)CCCC(C)C)C(=O)c2ccccc2C1=O [PHYTONADIONE] | 9.52 µM | > 30 µM | – |
| CNC1(c2ccccc2Cl)CCCCC1=O (configuration not stated) [KETAMINE] | > 30 µM | > 30 µM | – |

| Structure (SMILES) | AC50 [1] | AC50 (Acetylcholinesterase) | also measured |
| --- | --- | --- | --- |
| NC(=O)C1(N2CCCCC2)CCN(CCCC(=O)c2ccc(F)cc2)CC1 [PIPAMPERONE] | > 30 µM | > 30 µM | – |
| CC(C)NC[C@H](O)COc1ccc(O)cc1 [PRENALTEROL] | > 30 µM | > 30 µM | – |
| CN1CCC(N(Cc2cccs2)c2ccccc2)CC1 [THENALIDINE] | > 30 µM | > 30 µM | – |
| Cc1cccc(C)c1NC(=O)c1cc(S(N)(=O)=O)c(Cl)cc1O [XIPAMIDE] | > 30 µM | > 30 µM | – |
| CS(=O)(=O)Nc1ccc([N+](=O)[O-])cc1Oc1ccccc1 [NIMESULIDE] | > 10 µM | > 30 µM | AC50 [2]: > 30 µM; AC50 (Cannabinoid receptor 1 [3]): > 30 µM; AC50 (D(3) dopamine receptor): > 30 µM; AC50 [7]: 15 µM; AC50 (Vasopressin V2 receptor): 26 µM; AC50 (Vasopressin V1a receptor): > 30 µM; AC50 (Histamine H3 receptor): > 30 µM; AC50 (Cannabinoid receptor 1 [6]): > 30 µM |
| CC(=O)NC[C@H]1CN(c2ccc(N3CCOCC3)c(F)c2)C(=O)O1 [LINEZOLID] | – | – | AC50 [2]: > 30 µM; AC50 (Cannabinoid receptor 1 [3]): > 30 µM; AC50 (D(3) dopamine receptor): > 30 µM; AC50 [7]: > 30 µM; AC50 (Vasopressin V2 receptor): > 30 µM; AC50 [5]: > 30 µM; AC50 (Glucocorticoid receptor): > 30 µM; AC50 (Histamine H3 receptor): > 30 µM; AC50 (Cannabinoid receptor 1 [6]): > 30 µM |
| CCCCCCO[C@@H](C)c1cccc(-c2csc(NC(=O)c3cc(Cl)c(/C=C(\C)C(=O)O)c(Cl)c3)n2)c1OC [LUSUTROMBOPAG] | 16.2 µM | > 30 µM | – |
| NC(=O)C1(N2CCCCC2)CCN(CCCN2c3ccccc3CCc3ccccc32)CC1 [CARPIPRAMINE] | > 30 µM | > 30 µM | – |
| O=C1[C@@H]2[C@H]3CC[C@H](C3)[C@@H]2C(=O)N1C[C@@H]1CCCC[C@H]1CN1CCN(c2nsc3ccccc23)CC1 [LURASIDONE] | 22.5 µM | > 30 µM | AC50 [2]: 1.1 µM; AC50 (Cannabinoid receptor 1 [3]): > 30 µM; AC50 (D(3) dopamine receptor): 0.43 µM; AC50 [7]: > 30 µM; AC50 (Vasopressin V1a receptor): > 30 µM; AC50 (Histamine H3 receptor): > 30 µM; AC50 (Cannabinoid receptor 1 [6]): > 30 µM |
| C=CCOc1ccc(CC(=O)O)cc1Cl [ALCLOFENAC] | > 30 µM | > 30 µM | – |
| OC[C@H]1NC[C@H](O)[C@@H](O)[C@H]1O | > 30 µM | > 30 µM | – |
| Cc1ccc(C(C)C)c(O)c1 [THYMOL] | > 30 µM | > 30 µM | – |
| O=C(O)[C@@H](S)[C@@H](S)C(=O)O | > 30 µM | > 30 µM | – |
| Cc1cc(C)cc(OCC2CNC(=O)O2)c1 (configuration not stated) [METAXALONE] | > 30 µM | > 30 µM | – |
| C[C@@H](CN1CC(=O)NC(=O)C1)N1CC(=O)NC(=O)C1 [DEXRAZOXANE] | > 30 µM | > 30 µM | – |
| O=P1(N(CCCl)CCCl)NCCCO1 (configuration not stated) [CYCLOPHOSPHAMIDE ANHYDROUS] | > 30 µM | > 30 µM | – |
| CN1CCN(C(c2ccccc2)c2ccc(Cl)cc2)CC1 (configuration not stated) [CHLORCYCLIZINE] | > 30 µM | > 30 µM | – |
